The nature of data set [1]: Cytotoxicity against human Hep2 cells. It counts as cell-based, HEp-2.
Data set [2] in a line: Cytotoxicity against human MT4 cells. It counts as cell-based.
A further data set relates to Human orthopneumovirus. Description: Antiviral activity against Human respiratory syncytial virus. It counts as functional, organism-based.
The nature of data set [3]: Inhibition of Human respiratory syncytial virus RNP.

pEC50, pIC50: −log10 of the molar value.

For orientation: CC50 means the concentration that lowers cell viability or growth by half. A high value points to lower toxicity to the cells. For orientation: pEC50 means −log10 of the EC50, conventionally taken in molar units. In the case of `N#C[C@]1(CO)O[C@@H](c2ccc3c(N)ncnn23)[C@H](O)[C@@H]1O`, the results for the CC50 in data set [1] and in data set [2] were over 50 µM and over 53 µM, respectively. Besides, the pEC50 in the data set with Human orthopneumovirus was 5.14.

As to `C#C[C@]1(CO)O[C@@H](c2ccc3c(N)ncnn23)[C@H](F)[C@@H]1O`, the CC50 in data set [1] is over 100 µM; in data set [2], over 106 µM. The same compound showed a pEC50 with Human orthopneumovirus of 5.02.

For orientation: pIC50 means the negative decadic logarithm of the IC50, by convention in mol/L. Take `C#C[C@]1(COP(=O)(O)OP(=O)(O)OP(=O)(O)O)O[C@@H](c2ccc3c(N)ncnn23)[C@H](F)[C@@H]1O`: the pIC50 in data set [3] is 6.00.

Regarding `CC(C)(C)C(=O)SCCOP(=O)(OCCSC(=O)C(C)(C)C)OC[C@@]1(C#N)O[C@@H](c2ccc3c(N)ncnn23)[C@H](O)[C@@H]1O`, the values for the CC50 in data set [1] and in data set [2] were 39 µM and 7.3 µM, respectively. Also, the pEC50 in the data set with Human orthopneumovirus was 6.00.

Turning to `[N-]=[N+]=N[C@]1(CO)O[C@@H](c2ccc3c(N)nc(F)nn23)[C@H](F)[C@@H]1O`, the CC50 in data set [1] is over 100 µM; in data set [2] it was 32 µM. The pEC50 in the data set with Human orthopneumovirus is 6.24.

With `N#C[C@]1(CO)O[C@@H](c2cc(F)c3c(N)ncnn23)[C@H](O)[C@@H]1O`, the CC50 was over 100 µM in data set [1] and over 93 µM in data set [2]. The compound further showed a pEC50 with Human orthopneumovirus of 5.04.

(Values after ChEMBL document CHEMBL3608287, “Potential Treatment for the Respiratory Syncytial Virus Infections (HRSV)” (ACS Med Chem Lett, 2015).)
